In patent US5250416A, “Method for highly sensitive determination of NADH using kinase” (Noda Institute for Scientific Rsearch, priority 1991, dated 1993):

Columns and labels:
[1] = tested on: NADH kinase (the present enzyme); test: Inhibition, activation and stabilization of the present enzyme; type: biochemical, Pichia membranaefaciens
[2] = biological target: T1, NADH kinase B (Saccharomyces cerevisiae, UniProt Q06892); conditions: as substrate of NADH kinase B; from reference; cited from earlier work
T1 sequence (Q06892 1-414): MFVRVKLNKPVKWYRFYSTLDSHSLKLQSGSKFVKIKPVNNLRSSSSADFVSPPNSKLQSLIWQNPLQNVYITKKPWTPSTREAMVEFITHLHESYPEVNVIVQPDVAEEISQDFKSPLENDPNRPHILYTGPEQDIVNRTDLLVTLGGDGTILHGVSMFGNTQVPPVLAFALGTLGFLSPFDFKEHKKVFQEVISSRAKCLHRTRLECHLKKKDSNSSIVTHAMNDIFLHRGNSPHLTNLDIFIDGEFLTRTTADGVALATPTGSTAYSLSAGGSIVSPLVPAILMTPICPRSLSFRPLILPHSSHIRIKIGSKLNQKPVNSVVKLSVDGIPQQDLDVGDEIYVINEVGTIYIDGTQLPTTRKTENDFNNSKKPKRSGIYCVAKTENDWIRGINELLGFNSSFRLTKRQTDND

[3] = biological target: T2, NADH kinase A (Saccharomyces cerevisiae, UniProt Q06892); conditions: as substrate of NADH kinase A; from reference; cited from earlier work
T2 sequence (Q06892 1-414): T1 sequence (Q06892 1-414)

[4] = tested on: NADH kinase (the present enzyme); test: Substrate specificity of the present enzyme (NADH kinase); type: biochemical, Pichia membranaefaciens; conditions: for Relative activity (%): as substrate of the present enzyme, 30° C., 20 minutes, pH 8.5, relative to NADH = 100; for Action of the present enzyme on the substrate (in words): substrate specificity
Procedure: The substrate specificity of the present enzyme was examined under the following reaction conditions.
To 0.9 ml of each of the substrate solutions containing NADH or NAD^+, respectively, shown in Table 1 was added 0.1 ml of 23 U/ml of the present enzyme, and the reaction was carried out at 30° C. for 20 minutes. Then, the reaction was terminated by heat treatment at 100° C. for 2 minutes, and the denatured protein was removed, after which the amount of NADPH or NADP^+ produced by the reaction of the corresponding substrate was measured as follows. As a control solution, there was used a mixture of each substrate solution and the present enzyme in which the reaction had been terminated immediately after mixing them.
With 1 ml of each of the reaction solutions obtained in the above was mixed 1 ml of a color-producing solution consisting of 10 mM G-6-P, 50 mM HEPPS buffer (pH 8.0), 10 mM magnesium chloride, 0.1% bovine serum albumin, 2.5 IU/ml G-6-P dehydrogenase (NADP^+ -dependent), 5 IU/ml diaphorase and 250 μM 2,6-dichlorophenolindophenol. The resulting mixture was immediately introduced into a constant-temperature cuvette of STASAR III spectrophotometer of Gilford and subjected to reaction at 30° C. Simultaneously with the reaction, the change of absorbance at 600 nm was measured with the lapse of time, and the difference (ΔOD600nm /min) between absorbance values 1 minute and 2 minutes after the initiation of the coloration reaction was taken as a measured value. As to the relative activity (%), a measured value (ΔOD600nm /min) obtained by using NAD^+ as substrate was shown as a percentage based on a measured value (ΔOD600nm /min) obtained by using NADH as substrate.

[5] = tested on: NADH kinase (the present enzyme); test: Km value (Michaelis constant) of the present enzyme for NADH; type: biochemical, Pichia membranaefaciens; conditions: 30° C., pH 7.8 (Tris buffer)
Procedure: 0.9 Milliliters of the substrate solution containing NADH shown in Table 2 was preheated to 30° C., after which 0.1 ml of a solution of the present enzyme having an adequate concentration was added, and the reaction was carried out at 30° C. for 20 minutes. Thereafter, the reaction was terminated by heat treatment at 100° C. for 2 minutes, and the denatured protein was removed. Then, the amount of NADPH produced by the reaction of the substrate was measured as follows. As a control solution, there was used a mixture of the substrate solution and the present enzyme in which the reaction had been terminated immediately after mixing them.
With 1 ml of each of the reaction solutions obtained in the above was mixed 1 ml of a color-producing solution having the same composition as that of the color-producing solution described in the above item "Substrate specificity". […] Simultaneously with the reaction, the change of absorbance at 600 nm was measured with the lapse of time, and the difference (ΔOD600nm /min) between absorbance values 1 minute and 2 minutes after the initiation of the coloration reaction was obtained as a measured value. By the use of a calibration curve of ΔOD600nm /min versus NADPH concentration previously prepared using NADPH solutions of known concentrations, the amount of the NADPH produced was calculated from the measured value.

| SMILES | Stabilization of the present enzyme [1] | Specificity (relative activity, NADH = 100) [2] | Specificity (relative activity, NADH = 100) [3] | Relative activity (%) [4] [%] | Action of the present enzyme on the substrate (in words) [4] | Km [5] [µM] |
| --- | --- | --- | --- | --- | --- | --- |
| O[C@H](CS)[C@H](O)CS (racemic) [dithiothreitol] | stabilized | – | – | – | – | – |
| CC(=O)N[C@@H](CS)C(=O)O [N-acetyl-L-cysteine] | stabilized | – | – | – | – | – |
| NC(=O)C1=CN([C@@H]2O[C@H](COP(=O)(O)OP(=O)(O)OC[C@H]3O[C@@H](n4cnc5c(N)ncnc54)[C@H](O)[C@@H]3O)[C@@H](O)[C@H]2O)C=CC1 [NADH] | – | 100 | 100 | 100 | very high specificity | 27 |
| NC(=O)c1ccc[n+]([C@@H]2O[C@H](COP(=O)([O-])OP(=O)(O)OC[C@H]3O[C@@H](n4cnc5c(N)ncnc54)[C@H](O)[C@@H]3O)[C@@H](O)[C@H]2O)c1 [NAD^+] | – | 1.6 | 1.7 | 0.9 | hardly acts | – |
